Results on 19 compounds are retold here after PubChem BioAssay (NCI).

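Cells were grown in 96-well plates and exposed to each compound for 48 hours at five concentrations; endpoints were interpolated linearly between bracketing concentrations, or set to the highest concentration if not reached. TGI: concentration producing complete growth inhibition.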

Holding throughout (experiment): NCI tumour cell line growth inhibition, 48 h
In assay [1] the test system is RXF 393 renal.
Assay [2] deals with IGROV1 ovarian.
In assay [3] the test system is DU-145 prostate.
Assay [4] relates to EKVX NSCLC.
Assay [5] concerns HCT-15 colon.
The test system of assay [6] is ACHN renal.
In assay [7] the test system is RPMI-8226 leukemia.
Assay [8] has as its system LOX IMVI melanoma.
In assay [9] the test system is A549 NSCLC.
The subject of assay [10] is SK-MEL-5 melanoma.
Assay [11] has as its system OVCAR-4 ovarian.

Consider `COC(=O)[C@@](C)(COC(=O)C(C)(C)C)NC(=O)OC(C)(C)C`, for which the TGI in assay [1], in [2], in assay [3], in assay [4], in [5] and in assay [6] was more than 100 µM in each case. Also, the TGI in [7], in assay [8], in assay [9], in assay [10] and in assay [11] was more than 100 µM throughout.
Regarding `COc1ccccc1N=Nc1c(O)c(S(=O)(=O)O)cc2cc(S(=O)(=O)O)ccc12`, the TGI in assay [1], in assay [2], in [3], in [4], in assay [5] and in assay [6] was more than 100 µM each time. For the same compound, the TGI in [7], in assay [8], in assay [9], in [10] and in assay [11] was more than 100 µM in each case.
Regarding `Cc1nc2n(c1/C=C1/C(=O)Nc3ccccc31)CCS2`, the TGI is 71.3 µM in assay [1]; more than 100 µM in [2]; more than 100 µM in assay [3]; more than 100 µM in [4]; more than 100 µM in assay [5]; more than 100 µM in [6]. The TGI in assay [7], in assay [8], in assay [9], in [10] and in [11] was more than 100 µM each time.
Take `CO[C@H]1O[C@@H]2CO[C@@H](c3ccccc3)O[C@H]2[C@@H]2C/C=C\CCC[C@@]12O`: the TGI came out at 33.2 µM in assay [1]; 96.2 µM in assay [2]; 51.8 µM in assay [3]; 45.8 µM in [4]; 76.5 µM in assay [5]; 38.1 µM in assay [6]. Moreover, the TGI in [7] was 44.2 µM; in assay [8], 32.4 µM; in assay [9], more than 100 µM; in [10], 31.7 µM; in assay [11] it was more than 100 µM.
Consider `O=[N+]([O-])c1ccc2oc(=Nc3ccccc3)c(Nc3ccccc3)nc2c1`, for which the TGI in assay [1], in assay [2], in [3], in assay [4], in assay [5] and in assay [6] was more than 100 µM in each case. For the same compound, the TGI in assay [7], in assay [8], in assay [9], in assay [10] and in assay [11] was more than 100 µM each time.
Turning to `O=S(=O)(c1ccc(-c2nnc(-c3ccc(F)cc3)o2)cc1)c1ccc(-c2nnc(-c3ccc(F)cc3)o2)cc1`, the TGI in [1] was 77.7 µM; in assay [2], more than 100 µM; in assay [3], more than 100 µM; in [4] it was more than 100 µM; in [5] it was more than 100 µM; in [6], 46.8 µM. In addition, the TGI in [7], in assay [8], in assay [9], in assay [10] and in assay [11] was more than 100 µM each time.
With `[O-][n+]1c(CN2CCCCC2)nc2cccc3c2c1-c1ccccc1-3`, the TGI is 31.1 µM in assay [1]; more than 100 µM in assay [2]; 41.5 µM in [3]; 49.2 µM in assay [4]; more than 100 µM in assay [5]; 70.5 µM in assay [6]. Besides, the TGI was more than 100 µM in assay [7]; 46.8 µM in [8]; 33.1 µM in [9]; 32.1 µM in [10]; 77.4 µM in assay [11].
Regarding `CC(C)(O)C1CC[C@]2(C)[C@H]3CC[C@@H]4[C@@]5(C)CCCC(C)(C)[C@@H]5CC[C@@]4(C)[C@]3(C)CC[C@@H]12` (some centres undefined), the TGI in assay [1], in assay [2], in assay [3], in [4], in [5] and in [6] was more than 100 µM throughout. The TGI in assay [7], in assay [8], in [9], in [10] and in [11] was more than 100 µM in each case.
Consider `O=CC(O)C(O)C(O)C1CNC(=S)O1` (centres undefined), for which the TGI in assay [1], in assay [2], in assay [3], in assay [4], in assay [5] and in assay [6] was more than 100 µM in each case. In addition, the TGI in assay [7], in [8], in assay [9], in assay [10] and in [11] was more than 100 µM in each case.
On to `CC(C)=CCOc1cc(NC(=S)c2ccsc2C)ccc1Cl`, for which the TGI in assay [1] was 80.6 µM; in assay [2], 89.3 µM; in assay [3], more than 100 µM; in assay [4], more than 100 µM; in assay [5] it was more than 100 µM; in [6] it was more than 100 µM. Moreover, the TGI is 53.1 µM in [7]; more than 100 µM in [8]; more than 100 µM in assay [9]; more than 100 µM in [10]; more than 100 µM in [11].
On to `C=C[C@@]1(O)CCCC[C@@H]1CC(Sc1ccccc1)Sc1ccccc1`, for which the TGI in assay [1] was 30.5 µM; in assay [2], 29.2 µM; in assay [3], 32.2 µM; in assay [4], 31.1 µM; in assay [5], 34.6 µM; in [6] it was more than 100 µM. The TGI in assay [7] turned out to be 90.2 µM; in [8] it was 34.5 µM; in [9], 36.2 µM; in assay [10] it was 30.8 µM; in assay [11], 32.9 µM.
With `O=C(O)CC[P+](c1ccccc1)(c1ccccc1)c1ccccc1`, the TGI in [1], in assay [2], in assay [3], in assay [4], in [5] and in assay [6] was more than 100 µM in each case. For the same compound, the TGI is 19.9 µM in assay [7]; more than 100 µM in assay [8]; more than 100 µM in assay [9]; 42.2 µM in assay [10]; more than 100 µM in assay [11].
For `Cc1ccc(NC2=NCCO2)c2c1CCC2`, the TGI in assay [1], in [2], in [3], in [4], in assay [5] and in [6] was more than 100 µM each time. Besides, the TGI was more than 100 µM in assay [7]; 76 µM in [8]; more than 100 µM in assay [9]; 32.9 µM in [10]; more than 100 µM in assay [11].
`CC12CCCCC1=[N+]([O-])C(C)(C)N2O` (centres undefined): the TGI in [1], in assay [2], in assay [3], in assay [4], in assay [5] and in [6] was more than 100 µM in each case. Also, the TGI in assay [7], in assay [8], in [9], in assay [10] and in assay [11] was more than 100 µM in each case.
With `CS(=O)(=O)c1nc(-c2cc3c(c(S(C)(=O)=O)n2)CCC3)cc2c1CCCC2`, the TGI is 40.5 µM in assay [1]; 34.8 µM in [2]; more than 100 µM in [3]; more than 100 µM in assay [4]; more than 100 µM in assay [5]; more than 100 µM in assay [6]. Further, the TGI in assay [7] was more than 100 µM; in assay [8], 49.8 µM; in [9] it was more than 100 µM; in [10] it was more than 100 µM; in assay [11], more than 100 µM.
As to `O=Nn1c2ccccc2c2cc([N+](=O)[O-])ccc21`, the TGI was 30.8 µM in assay [1]; 30.2 µM in assay [2]; 28.5 µM in [3]; 36.3 µM in assay [4]; more than 100 µM in assay [5]; 29.3 µM in [6]. Also, the TGI is 38.8 µM in [7]; 30.9 µM in assay [8]; 73.2 µM in [9]; more than 100 µM in assay [10]; 32.1 µM in assay [11].
Regarding `O=c1[nH]c(=O)n(COCCO)c2ccsc12`, the TGI in [1], in assay [2], in assay [3], in assay [4], in assay [5] and in [6] was more than 100 µM in each case. The TGI in [7], in assay [8], in [9], in assay [10] and in [11] was more than 100 µM each time.
For the compound `C[N+](C)(C)C=Nc1cccc2c1CCCC2`, the TGI in [1], in assay [2], in [3], in [4], in assay [5] and in assay [6] was more than 100 µM in each case. For the same compound, the TGI in [7], in assay [8], in assay [9], in assay [10] and in assay [11] was more than 100 µM in each case.
Turning to `COc1ccc(C(Cc2ccccc2)C2NC(=S)NC2=O)cc1` (centres undefined), the TGI in [1], in assay [2], in assay [3], in assay [4], in assay [5] and in assay [6] was more than 25 µM throughout. Also, the TGI in [7], in assay [8], in assay [9], in assay [10] and in assay [11] was more than 25 µM in each case.
